Measured values: US6407088B1 (priority 2000, dated 2002)
“And” between values parts separate entries of the source, which are not always exact repeats. Identical values can stand only once. “Also recorded” adds a separate entry of the source. Like-named read-outs stand apart in the source and are kept apart here. Marks after values point to notes of the source that are not given here.

What was measured:
[1] = test system: Salmonella TA102
[2] = test system: Shanghai mice; conditions: mouse, in vivo
[3] = test system: Rhesus monkeys; conditions: rhesus monkey, in vivo
[4] = test system: Wistar rats; assay: Formalin induced inflammation test in rats; conditions: rat, in vivo
[5] = test system: TTX-sensitive sodium channel (TTX-S); conditions: cited from earlier work
[6] = test system: 2% red blood cell (RBC) suspension; type: cell-based, rabbit
[7] = test system: mice; conditions: mouse, in vivo
[8] = test system: rabbits; design: species or system New Zealand white rabbits; conditions: rabbit, in vivo, iv
[9] = test system: anesthetized dogs; conditions: dog, in vivo
[10] = test system: mice; assay: Analgesic time-effect relation in acetic acid-induced writhing test in mice; type: in vivo; conditions: for IR, inhibition rate / AWI, average writhing incidence: aspirin ig
[11] = test system: Hartley guinea pigs
[12] = test system: Chinese hamster lung (CHL) cells; type: cell-based; conditions: for Chromosomal aberration rate (%): MMC 0.25 μg/mL, no metabolic activation, P<0.01
Experimental: The Chinese hamster lung (CHL) cells were exposed to tetrodotoxin at the concentrations of 5.0, 10.0, and 20.0 μg/mL for 24 or 48 hours in the absence of Sg activation and for 6 hours in the presence of S9 activation.

[13] = test system: late term cancer patients; conditions: human, in vivo
[14] = test system: monkeys; conditions: rhesus monkey, in vivo
[15] = test system: monkeys; conditions: rhesus monkey, in vivo; remark: listed apart in the source
[16] = test system: Kunming mice; assay: Acetic acid-induced writhing test in mice; type: in vivo
[17] = test system: mouse's marrow cells; conditions: in vivo
[18] = target: TTX-resistant sodium channel (TTX-R) (Rattus norvegicus, UniProt Q62968); conditions: cited from earlier work
TTX-resistant sodium channel (TTX-R), sequence (Q62968 whole entry, looked up): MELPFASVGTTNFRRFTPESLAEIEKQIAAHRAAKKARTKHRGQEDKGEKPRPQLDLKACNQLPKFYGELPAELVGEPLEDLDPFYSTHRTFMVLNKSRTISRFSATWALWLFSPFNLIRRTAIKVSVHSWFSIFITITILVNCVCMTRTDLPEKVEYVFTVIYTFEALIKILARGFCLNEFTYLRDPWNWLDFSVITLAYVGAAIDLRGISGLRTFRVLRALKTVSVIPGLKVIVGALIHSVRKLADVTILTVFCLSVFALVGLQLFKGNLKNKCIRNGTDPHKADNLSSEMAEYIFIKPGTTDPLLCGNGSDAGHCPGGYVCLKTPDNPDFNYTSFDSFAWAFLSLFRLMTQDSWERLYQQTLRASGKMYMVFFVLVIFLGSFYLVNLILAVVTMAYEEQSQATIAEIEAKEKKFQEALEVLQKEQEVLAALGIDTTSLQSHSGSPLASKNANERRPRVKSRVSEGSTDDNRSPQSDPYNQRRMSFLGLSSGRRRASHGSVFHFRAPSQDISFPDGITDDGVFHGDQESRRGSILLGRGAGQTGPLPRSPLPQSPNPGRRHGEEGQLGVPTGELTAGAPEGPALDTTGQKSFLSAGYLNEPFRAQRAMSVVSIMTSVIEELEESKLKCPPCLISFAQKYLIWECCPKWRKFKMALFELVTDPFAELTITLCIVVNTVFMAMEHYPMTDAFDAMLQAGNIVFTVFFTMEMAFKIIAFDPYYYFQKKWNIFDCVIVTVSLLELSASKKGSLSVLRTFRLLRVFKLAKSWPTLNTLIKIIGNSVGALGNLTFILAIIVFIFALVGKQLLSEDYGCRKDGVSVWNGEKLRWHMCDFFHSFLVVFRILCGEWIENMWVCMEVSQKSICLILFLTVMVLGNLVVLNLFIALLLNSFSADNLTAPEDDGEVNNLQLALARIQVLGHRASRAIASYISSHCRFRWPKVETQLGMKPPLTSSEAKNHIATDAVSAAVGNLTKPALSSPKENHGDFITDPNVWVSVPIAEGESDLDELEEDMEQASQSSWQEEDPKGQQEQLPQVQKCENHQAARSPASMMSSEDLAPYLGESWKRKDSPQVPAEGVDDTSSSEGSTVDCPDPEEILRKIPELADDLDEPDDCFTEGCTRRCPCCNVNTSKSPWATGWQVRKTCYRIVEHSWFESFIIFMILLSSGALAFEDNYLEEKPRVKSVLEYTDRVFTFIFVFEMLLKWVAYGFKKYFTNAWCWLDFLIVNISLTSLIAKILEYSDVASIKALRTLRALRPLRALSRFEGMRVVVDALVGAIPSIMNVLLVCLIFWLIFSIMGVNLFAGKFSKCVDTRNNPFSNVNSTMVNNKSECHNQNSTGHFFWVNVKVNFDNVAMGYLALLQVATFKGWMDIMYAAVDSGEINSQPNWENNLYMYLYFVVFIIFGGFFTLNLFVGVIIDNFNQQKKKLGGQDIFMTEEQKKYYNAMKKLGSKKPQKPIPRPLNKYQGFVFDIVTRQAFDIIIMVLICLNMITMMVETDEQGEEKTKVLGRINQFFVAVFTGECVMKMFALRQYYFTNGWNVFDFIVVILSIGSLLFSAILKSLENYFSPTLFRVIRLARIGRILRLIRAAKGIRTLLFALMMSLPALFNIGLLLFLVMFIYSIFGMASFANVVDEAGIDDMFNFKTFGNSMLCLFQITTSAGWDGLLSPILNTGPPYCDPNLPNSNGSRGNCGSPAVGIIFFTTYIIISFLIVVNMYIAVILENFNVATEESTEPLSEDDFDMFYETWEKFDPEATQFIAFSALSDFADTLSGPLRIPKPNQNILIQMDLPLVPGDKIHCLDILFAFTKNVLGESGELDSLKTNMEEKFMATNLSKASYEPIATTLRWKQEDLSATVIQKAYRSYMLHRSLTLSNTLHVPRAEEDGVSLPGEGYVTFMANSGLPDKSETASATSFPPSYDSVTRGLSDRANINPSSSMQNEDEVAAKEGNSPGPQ

[19] = test system: rats; conditions: rat, in vivo
[20] = target: hPN3 (Homo sapiens, UniProt Q9Y5Y9); conditions: cited from earlier work
hPN3, sequence (Q9Y5Y9 whole entry, looked up): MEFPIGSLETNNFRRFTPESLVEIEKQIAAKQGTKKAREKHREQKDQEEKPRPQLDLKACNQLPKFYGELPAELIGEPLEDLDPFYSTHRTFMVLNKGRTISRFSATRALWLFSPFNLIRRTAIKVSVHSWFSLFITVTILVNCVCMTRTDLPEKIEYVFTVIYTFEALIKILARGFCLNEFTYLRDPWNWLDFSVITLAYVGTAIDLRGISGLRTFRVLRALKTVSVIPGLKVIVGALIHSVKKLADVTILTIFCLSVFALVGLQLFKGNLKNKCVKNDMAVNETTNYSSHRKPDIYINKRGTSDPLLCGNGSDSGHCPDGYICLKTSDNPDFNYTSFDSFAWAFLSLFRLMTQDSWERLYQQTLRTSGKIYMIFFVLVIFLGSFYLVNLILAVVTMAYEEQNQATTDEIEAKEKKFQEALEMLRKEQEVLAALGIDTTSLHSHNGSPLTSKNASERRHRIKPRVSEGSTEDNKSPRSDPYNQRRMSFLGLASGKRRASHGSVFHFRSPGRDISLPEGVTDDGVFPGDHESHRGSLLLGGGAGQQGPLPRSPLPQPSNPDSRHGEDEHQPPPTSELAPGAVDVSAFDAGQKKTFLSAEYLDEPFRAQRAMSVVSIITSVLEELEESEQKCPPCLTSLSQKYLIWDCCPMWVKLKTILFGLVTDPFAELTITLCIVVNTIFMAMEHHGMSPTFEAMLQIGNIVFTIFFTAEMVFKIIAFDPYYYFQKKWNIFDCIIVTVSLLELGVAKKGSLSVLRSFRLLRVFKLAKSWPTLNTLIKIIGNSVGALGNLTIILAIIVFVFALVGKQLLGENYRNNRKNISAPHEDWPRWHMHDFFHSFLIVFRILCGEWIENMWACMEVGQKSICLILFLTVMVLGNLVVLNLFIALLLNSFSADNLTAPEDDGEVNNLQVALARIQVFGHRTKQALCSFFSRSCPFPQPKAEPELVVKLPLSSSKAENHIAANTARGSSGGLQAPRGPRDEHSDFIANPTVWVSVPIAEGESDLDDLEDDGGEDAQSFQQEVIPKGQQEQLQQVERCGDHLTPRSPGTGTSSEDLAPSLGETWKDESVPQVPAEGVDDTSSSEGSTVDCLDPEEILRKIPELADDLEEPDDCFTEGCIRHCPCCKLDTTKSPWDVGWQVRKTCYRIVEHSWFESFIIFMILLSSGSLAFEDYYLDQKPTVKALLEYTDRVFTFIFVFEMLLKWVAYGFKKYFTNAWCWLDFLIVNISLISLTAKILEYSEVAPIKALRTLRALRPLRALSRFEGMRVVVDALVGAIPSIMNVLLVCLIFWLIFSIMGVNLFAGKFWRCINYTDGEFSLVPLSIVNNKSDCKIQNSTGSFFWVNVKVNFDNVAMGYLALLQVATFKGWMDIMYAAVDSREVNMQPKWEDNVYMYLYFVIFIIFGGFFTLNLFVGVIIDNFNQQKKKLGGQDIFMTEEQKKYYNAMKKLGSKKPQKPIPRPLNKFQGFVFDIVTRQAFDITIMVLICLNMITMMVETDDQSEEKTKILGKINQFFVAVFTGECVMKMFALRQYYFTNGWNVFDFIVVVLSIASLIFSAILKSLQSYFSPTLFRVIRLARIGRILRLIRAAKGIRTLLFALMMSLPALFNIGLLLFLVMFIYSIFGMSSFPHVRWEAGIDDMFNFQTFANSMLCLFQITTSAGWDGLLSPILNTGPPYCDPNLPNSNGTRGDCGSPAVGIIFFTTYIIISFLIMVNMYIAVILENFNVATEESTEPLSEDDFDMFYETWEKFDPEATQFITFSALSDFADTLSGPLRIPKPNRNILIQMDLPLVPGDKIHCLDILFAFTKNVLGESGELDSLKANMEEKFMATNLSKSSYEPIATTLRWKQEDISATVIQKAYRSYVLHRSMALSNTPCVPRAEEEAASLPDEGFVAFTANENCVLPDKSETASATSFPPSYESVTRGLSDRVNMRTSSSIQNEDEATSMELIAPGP

[21] = test system: Kunming mice; conditions: mouse, in vivo, ip
[22] = test system: rabbits' quadriceps femoris muscles
[23] = test system: Kunming mice; conditions: mouse, in vivo
[24] = Aspirin 100 mg/kg, Table 5 (im)
[25] = Aspirin 200 mg/kg, Table 5 (im)
[26] = Aspirin 300 mg/kg, Table 5 (im)
[27] = Aspirin 400 mg/kg, Table 5 (im)
[28] = quadriceps femoris, 1 mL im, 48 hours

O=C1c2cccc(O)c2C(=O)c2c(O)cccc21 [DAN]
Number of revertant Salmonella colonies, TA102 ([1]; DAN 100.0, +S9): 906 ± 69 | Number of revertant Salmonella colonies, TA102 ([1]; DAN 100.0, −S9): 379 ± 99

N=C1NC(O)C2C3OC4(O)OC(C(O)C2(N1)C4O)C3(O)CO (centres unmarked) [TTX, octahydro-12-(hydroxymethyl)-2-imino-5,9:7,10a-dimethano-10aH-(1,3)dioxocino(6,5-d)-pyrimidine-4,7,10,11,12-pentol]
embryotoxicity or teratogenic action [2]: No embryotoxicity or teratogenic action | decrease of AChE activity [3]: 41.2% | toxic symptoms [3]: evident toxic symptoms | analgesic effect, times stronger than morphine [4]: 2900 times | analgesic effect, times stronger than morphine ([4]; sc): 3200 times | IC50 [5]: 0.001 to 0.02 µM | in vitro haemolyzation [6]: did not induce in vitro haemolyzation | Jumping Frequency (X ± SD) [7]: 0.70 ± 2.70 and 1.30 ± 3.90 | Jumping Incidence (%) ([7]; sc): 10.0*# % | vascular stimulation [8]: did not produce any pronounced vascular stimulation | effect on blood pressure, heart rate, electrocardiogram, respiratory rate and depth [9]: did not significantly affect | duration of analgesic effect ([10]; mouse, in vivo, sc): about 5 hours | onset of therapeutic effect ([10]; mouse, in vivo, sc): 15 min | time to peak effect after dosing ([10]; mouse, in vivo, sc): 1 h | animals with hypersensitive reaction (+) ([11]; guinea pig, in vivo): 0/8 | animals with hypersensitive reaction (++) ([11]; guinea pig, in vivo): 0/8 | animals with hypersensitive reaction (−) ([11]; guinea pig, in vivo): 8/8 | chromosomal aberration rates [12]: 0˜2% | Side Effect(s) [13]: Numbness; also recorded: Numbness,; also recorded: nausea, vomit | addiction or withdrawal [13]: No signs of addiction or withdrawal | blood pressure decrease [13]: 10-15 mm Hg | duration of analgesic effect / total pain relief [13]: 20 to 30 days | duration of numbness or tingling [13]: at most 30 min | onset of numbness or tingling in lips, tongue tip, fingers and toes [13]: 10 to 20 min | pain at the conclusion of treatment [13]: entirely eliminated | pain intensity of all subjects [13]: reduced to 0 in all but one patient who recorded a 1 | quality of life interference [13]: 0 | quality of life score [13]: 6 | time to noticeable pain relief, some subjects [13]: 5 min | time to pain relief (various degrees), all subjects [13]: ≤ 30 min | time to recovery of blood pressure [13]: 40 to 50 min | time to take effect [13]: 5 to 30 min | Body Weight Loss (%) [14]: 0.4 ± 0.8 % | Score of Withdrawal Symptoms [14]: 2.6 ± 4.6 | toxic reaction on dose escalation [14]: significant toxic reaction (vomiting) | Percentage change in body weight, Overall Mean X ± SD [15]: 3.2 | withdrawal symptom score (Mean ± SD) [15]: 0.0 | analgesic effect, times stronger than meperidine ([16]; mouse, in vivo): 670 times | micronucleus rate [17]: 4.3 ‰ | IC50 [18]: ~100 µM | Score of body weight loss (Mean ± SD) [19]: 0.00 ± 0.00 | Score of withdrawal symptoms (Mean ± SD) ([19]; sc): 0.30 ± 0.90 and 0.20 ± 0.60 | IC50 [20]: 80 µM | Sleeping time (X ± SD) [21]: 35.1 ± 26.2 ||| min and 36.3 ± 16.7 ||| min and 26.6 ± 22.5 ||| min

O=P1(N(CCCl)CCCl)NCCCO1 (centres unmarked) [cyclophosphamide]
teratogenic rate ([2]; female, Shanghai): 100% | Number of Micronucleus cells [17]: 279

10% bovine serum albumin: 10% bovine serum albumin solution, positive control in hypersensitivity test
animals with hypersensitive reaction (+) ([11]; (+) scratching nose, pilo-erection, uneasiness, sneezing, shortness of breath, mild cyanosis, animals/8): 4/8 | animals with hypersensitive reaction (++) ([11]; (++) pilo-erection, manifest dyspnea, cyanosis, weakness of limbs, animals/8): 3/8 | animals with hypersensitive reaction (+++) ([11]; (+++) Death, animals/8): 1/8 | animals with hypersensitive reaction (−) ([11]; guinea pig, in vivo): 0/8

CCOC(=O)C1(c2ccccc2)CCN(C)CC1 [Meperidine]
ID50 and 95% Confidence Interval ([16]; mouse, in vivo, sc): 1.8 mg/kg

CC(=O)Oc1ccccc1C(=O)O [Aspirin]
duration of analgesic effect ([10]; aspirin 400 mg/kg po): about 2 hours | onset of therapeutic effect ([10]; aspirin 400 mg/kg po): 20 min | time to peak effect after dosing ([10]; aspirin 400 mg/kg po): 0.5 h | IR, inhibition rate ([10]; Table 10, 10 min): 38.4 | IR, inhibition rate ([10]; Table 10, 20 min): 41.1 | AWI, average writhing incidence ([10]; Table 10, 30 min): 1.98 | IR, inhibition rate ([10]; Table 10, 30 min): 89.2 | AWI, average writhing incidence ([10]; Table 10, 40 min): 4.8 | IR, inhibition rate ([10]; Table 10, 40 min): 74.1 | AWI, average writhing incidence ([10]; Table 10, 70 min): 6.3 | IR, inhibition rate ([10]; Table 10, 70 min): 65.9 | IR, inhibition rate ([10]; Table 10, 100 min): 37.1 | IR, inhibition rate ([10]; Table 10, 130 min): 36.2 | AWI, average writhing incidence ([10]; Table 12 (NS 28.2 ± 14.3), 10 min after dosing): 19.5 | IR, inhibition rate ([10]; Table 12, 10 min): 30.8 | AWI, average writhing incidence ([10]; Table 12, 20 min): 17.7 | IR, inhibition rate ([10]; Table 12, 20 min): 37.2 | AWI, average writhing incidence ([10]; Table 12, 30 min): 5.5 | IR, inhibition rate ([10]; Table 12, 30 min): 80.6 | AWI, average writhing incidence ([10]; Table 12, 45 min): 8.2 | IR, inhibition rate ([10]; Table 12, 45 min): 70.9 | AWI, average writhing incidence ([10]; Table 12, 60 min): 10.2 | IR, inhibition rate ([10]; Table 12, 60 min): 63.8 | AWI, average writhing incidence ([10]; Table 12, 90 min): 14.4 | IR, inhibition rate ([10]; Table 12, 90 min): 49.0 | AWI, average writhing incidence ([10]; Table 12, 120 min): 19.3 | IR, inhibition rate ([10]; Table 12, 120 min): 31.6 | AWI, average writhing incidence ([10]; Table 12, 150 min): 22.8 | IR, inhibition rate ([10]; Table 12, 150 min): 19.3 | Percentage of inhibition (%) ([16]; Aspirin 100 mg/kg, Table 4 (sc)): 18.9% | Average Writhing Incidents [16, 24]: 22.1 | Inhibition Rate % [16, 24]: 21.7% | Percentage of inhibition (%) ([16]; Aspirin 200 mg/kg, Table 4 (sc)): 46.2% | Average Writhing Incidents [16, 25]: 14.3 | Inhibition Rate % [16, 25]: 49.3% | Percentage of inhibition (%) ([16]; Aspirin 300 mg/kg, Table 4 (sc)): 69.4% | Average Writhing Incidents [16, 26]: 7.2 | Inhibition Rate % [16, 26]: 74.4% | Percentage of inhibition (%) ([16]; Aspirin 400 mg/kg, Table 4 (sc)): 85.4% | Average Writhing Incidents [16, 27]: 2.7 | Inhibition Rate % [16, 27]: 90.6% | ID50 and 95% Confidence Interval ([16]; Aspirin, Table 4 (sc)): 198.8 mg/kg | ID50 (95% Confidence Interval) ([16]; Aspirin, Table 5 (im)): 183.8 mg/kg

CO[C@@]12[C@H](COC(N)=O)C3=C(C(=O)C(C)=C(N)C3=O)N1C[C@@H]1N[C@@H]12 [MMC]
Chromosomal aberration rate (%) ([12]; 24 hours): 72% | Chromosomal aberration rate (%) ([12]; 48 hours): 99%

CC1(C)S[C@@H]2[C@H](NC(=O)Cc3ccccc3)C(=O)N2[C@H]1C(=O)[O-].[K+] [Penicillin G-K, penicillin G-K]
Grade for stimulation reaction, Left side, rabbit 1 [22, 28]: 4 | Grade for stimulation reaction, Right side, rabbit 1 [22, 28]: 4 | Grade for stimulation reaction, Right side, rabbit 2 [22, 28]: 4 | Grade for stimulation reaction, Left side, rabbit 2 ([22]; rabbit, in vivo): 4 | Sum of grades ([22]; two rabbits, both sides): 16

Cn1c(=O)c2c(ncn2C)n(C)c1=O [Caffeine]
Number of autonomic mobility (X ± SD) [23]: 777 ± 178 •••
